Test results from US9187524B2, “Broad spectrum antibiotic arylomycin analogs” (The Scripps Research Institute, priority 2010, dated 2015).
Converted amounts (≈) assume the structure as drawn. Like-named read-outs stand apart in the source and are kept apart here.

What was measured:
[1] = tested on: Bacillus subtilis; test: microbe, parasite or virus in culture; type: cell-based; conditions: Table 13
[2] = tested on: C. efficiens; test: microbe, parasite or virus in culture; type: cell-based; conditions: Corynebacterium efficiens
[3] = tested on: S. aureus COL; test: microbe, parasite or virus in culture; type: cell-based; conditions: Staphylococcus aureus, read-out: MIC, S. aureus COL
[4] = biological target: T1, P84S variant of truncated E. coli SPase (Escherichia coli, UniProt P00803, P84S); test: biochemical; type: binding
T1 construct: a truncated wild type E. coli SPase that lacks the N-terminal membrane helices; made in house; host or cells: E. coli BL21(DE3)
T1 sequence (P00803 76-324, looked up, stated change not applied): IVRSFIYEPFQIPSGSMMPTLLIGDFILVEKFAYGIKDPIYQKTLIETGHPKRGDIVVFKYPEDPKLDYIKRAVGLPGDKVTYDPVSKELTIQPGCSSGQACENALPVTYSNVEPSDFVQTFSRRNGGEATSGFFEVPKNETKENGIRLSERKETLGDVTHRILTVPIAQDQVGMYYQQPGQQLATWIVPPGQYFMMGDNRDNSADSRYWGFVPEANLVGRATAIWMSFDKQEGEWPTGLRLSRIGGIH

[5] = tested on: R. equi; test: microbe, parasite or virus in culture; type: cell-based; conditions: Rhodococcus (subgen. Prescottella) equi; Table 4
[6] = tested on: S. agalactiae; test: microbe, parasite or virus in culture; type: cell-based, Streptococcus agalactiae; conditions: for MIC: Streptococcus agalactiae
[7] = tested on: S. pyogenes; test: microbe, parasite or virus in culture; type: cell-based, Streptococcus pyogenes; conditions: for MIC: Streptococcus pyogenes
[8] = tested on: Clostridium difficile; test: microbe, parasite or virus in culture; type: cell-based; conditions: Clostridioides difficile, Table 13
[9] = tested on: Rhodococcus erythropolis; test: microbe, parasite or virus in culture; type: cell-based; conditions: Table 13
[10] = tested on: B. brevis; test: microbe, parasite or virus in culture; type: cell-based, Brevibacillus brevis; conditions: for MIC: Brevibacillus brevis
[11] = tested on: Staphylococcus haemolyticus; test: microbe, parasite or virus in culture; type: cell-based; conditions: Table 13
[12] = tested on: wild type S. epidermidis RP62A; test: microbe, parasite or virus in culture; type: cell-based, Staphylococcus epidermidis; conditions: Staphylococcus epidermidis
[13] = tested on: Yersinia pestis; test: microbe, parasite or virus in culture; type: cell-based; conditions: read-out: MIC, Yersinia pestis
[14] = tested on: Francisella tularensis; test: microbe, parasite or virus in culture; type: cell-based
[15] = tested on: wild type E. coli MG1655; test: microbe, parasite or virus in culture; type: cell-based, Escherichia coli; conditions: for MIC: Escherichia coli
[16] = tested on: Lactobacillus acidophilus; test: microbe, parasite or virus in culture; type: cell-based; conditions: Table 13
[17] = biological target: T2, full-length wild type E. coli SPase (Pro-variant) (Escherichia coli, UniProt P00803); test: biochemical; type: binding
T2 construct: Full length His-tagged E. coli SPase proteins were expressed in BL21(DE3); His6; made in house; host or cells: E. coli BL21(DE3)

Q: With `CCCCCCCCCCCCCCCC(=O)N(C)[C@H](CO)C(=O)N[C@H](C)C(=O)NCC(=O)N(C)[C@@H]1C(=O)N[C@@H](C)C(=O)N[C@H](C(=O)O)Cc2ccc(O)c(c2)-c2cc1ccc2O` [Arylomycin C16] as the molecule, how does the MIC [1] read?
A: > 128 µg/mL

Q: And the MIC ([2]; Table 4, read-out: MIC, C. efficiens)?
A: 16 µg/mL (≈ 18.2 µM)

Q: And the MIC ([2]; Table 13, […], read-out: MIC, Corynebacterium efficiens)?
A: > 64 µg/mL

Q: And the MIC ([2]; text b755, read-out: MIC, Corynebacterium efficiens)?
A: 16 µg/mL (≈ 18.2 µM)

Q: What about the MIC [3] of the same molecule?
A: 12 µg/mL (≈ 13.6 µM)

Q: And the Kd [4]?
A: 39 ± 15 nM

Q: What about the MIC [5] of the same molecule?
A: 16 µg/mL (≈ 18.2 µM)

Q: And the MIC ([6]; Table 4, read-out: MIC, S. agalactiae)?
A: > 128 µg/mL

Q: What about the MIC ([6]; Table 13, […], read-out: MIC, Streptococcus agalactiae) of the same molecule?
A: > 128 µg/mL

Q: What about the “MIC, S. agalactiae” value ([6]; Table 14) of the same molecule?
A: >128 µg/mL

Q: And the MIC ([7]; Table 4, read-out: MIC, S. pyogenes)?
A: 8 µg/mL (≈ 9.08 µM)

Q: And the MIC ([7]; Table 13, […], read-out: MIC, Streptococcus pyogenes)?
A: 16 µg/mL (≈ 18.2 µM)

Q: And the “MIC, S. pyogenes” value ([7]; Table 14)?
A: 8 µg/mL (≈ 9.08 µM)

Q: And the MIC [8]?
A: > 16 µg/mL

Q: And the MIC [9]?
A: 16 µg/mL (≈ 18.2 µM)

Q: What about the MIC ([10]; Table 4, read-out: MIC, B. brevis) of the same molecule?
A: > 64 µg/mL

Q: And the MIC ([10]; Table 13, […], read-out: MIC, Brevibacillus brevis)?
A: > 64 µg/mL

Q: And the “activity against B. brevis” value ([10]; MHBII broth and nutrient broth)?
A: no activity

Q: And the MIC [11]?
A: 2 µg/mL (≈ 2.27 µM)

Q: And the MIC ([12]; Table 11, […], read-out: MIC, S. epidermidis RP62A)?
A: 0.25 µg/mL (≈ 0.284 µM)

Q: What about the MIC ([12]; Table 13, […], read-out: MIC, Staphylococcus epidermidis) of the same molecule?
A: 0.25 µg/mL (≈ 0.284 µM)

Q: And the MIC ([12]; read-out: MIC, S. epidermidis)?
A: 0.25 µg/mL (≈ 0.284 µM)

Q: What about the MIC ([12]; read-out: MIC, Sensitive Se) of the same molecule?
A: 0.5 µg/mL (≈ 0.567 µM)

Q: What about the MIC [13] of the same molecule?
A: 4 µg/mL (≈ 4.54 µM)

Q: What about the MIC ([14]; read-out: MIC, Francisella tularensis clinical isolate) of the same molecule?
A: 32 µg/mL (≈ 36.3 µM)

Q: And the MIC ([14]; read-out: MIC, Francisella tularensis clinical isolates, 8 of nineteen clinical isolates)?
A: 4 to 16 µg/mL (≈ 4.54 to 18.2 µM)

Q: And the MIC ([14]; read-out: MIC, Francisella tularensis clinical isolates, remainder of nineteen clinical isolates)?
A: > 64 µg/mL

Q: And the MIC ([15]; MG1655, read-out: MIC, Resistant Ec)?
A: > 64 µg/mL

Q: What about the MIC ([15]; MG1655, Table 11, […], read-out: MIC, E. coli MG1655) of the same molecule?
A: > 128 µg/mL

Q: What about the MIC ([15]; MG1655, Table 13, […], read-out: MIC, Escherichia coli) of the same molecule?
A: > 128 µg/mL

Q: What about the MIC ([15]; MG1655, read-out: MIC, E. coli) of the same molecule?
A: > 64 µg/mL

Q: What about the “MIC, Resistant Ec” value ([15]; Table 2B, SPase with resistance-conferring Pro) of the same molecule?
A: >64 µg/mL

Q: And the MIC [16]?
A: > 128 µg/mL

Q: What about the Kd [17] of the same molecule?
A: 60 ± 16 nM
